According to patent US20050187288A1, “Beta-lapachone and methods of treating cancer” (priority 2004, published 2005):
Several values for one entry are separate records, joined by “and”; a condition that tells them apart may be missing. Equal values may be shown once. Read-outs that look alike come from different tables or passages of the source.

Assays:
[1] = Study 2B: dose-range-finding toxicity study, single intravenous administration in dogs; conditions: two dogs
Protocol: The time interval between each dose was three to four days.
Whole blood samples (1 ml/sample) were also collected on each day of dose administration for toxicokinetics analysis.

[2] = tested on: SK-OV-3; experiment: cells; conditions: Homo sapiens, SK-OV-3, read-out: LC50 (Replicate Results), SK-OV-3, 4 hour exposure, colonies after 14-21 days
Protocol: (§2) Control plates received the same volume of DMSO alone. After a 4 hour exposure the drug was carefully removed, and drug-free medium could be added. […] Colonies of greater than 50 cells were scored as survivors. Cells were maintained at 37° C. in 5% CO2 in complete humidity.

[3] = tested on: SK-OV-3; conditions: human, 4 h
Protocol: as §2

[4] = tested on: PC-3; conditions: human, 4 h
Protocol: as §2

[5] = tested on: A549 human lung cancer cells; conditions: 60 mg/kg IP every three days, 8 treatments
Protocol: Athymic female nude mice (Ncr) were inoculated subcutaneously with 4×10^6 A549 human lung cancer cells, and the tumors were allowed to grow to 50 mm^3 in size. The animals were randomized into three groups of seven animals per group. […] Mean tumor volume was then analyzed.

[6] = Pharmacokinetics after intravenous infusion in rats, HPBCD formulation; conditions: male, Sprague-Dawley, rat, plasma
[7] = tested on: DU-145; conditions: human, 4 h
Protocol: as §2

[8] = dog, in vivo
Text: On Day 23 of the study, 4 animals/sex/group were euthanized (barbiturate overdose) followed by exsanguination and subjected to necropsy as described below.

[9] = Reversibility of binding to human plasma proteins; assay type: in vitro ADME; conditions: pooled human plasma, dialyzed three times against fresh plasma, 37° C., read-out: fraction in plasma reversibly bound to plasma proteins
Protocol: The spiked plasma was incubated at 37° C. for 1 h, and then was dialyzed three times against fresh plasma aliquots at 37° C.

[10] = tested on: DU145 human prostate cancer; experiment: Human prostate cancer xenograft model; assay type: in vivo, mice
Protocol: Tumors were measured throughout treatment and the post-treatment observation period. […] Tumor nodules were measured during the treatment period (Days 21-43) and at the end of observation (Day 56). Dose-related inhibition of tumor growth is seen, with little tumor growth following completion of treatment. […] Tumor nodules were measured pre-treatment (“Pre-Tx”), at the end of the 30-day treatment period (“Post-Tx”) and at the conclusion of the post treatment observation period 14 days following termination of treatment (“Post-Exp't”).

[11] = tested on: 60 cancer cell lines; experiment: NCI in vitro screen of 60 cancer cell lines, sulforhodamine B assay; assay type: cell-based; conditions: Homo sapiens, 60 cell, read-out: LC50 (log10 molar concentration causing 50% lethality), mean across all cells (converted)
Protocol: The NCI screen includes cell lines isolated from leukemia, non-small cell lung cancer (NSCLC), colon, […] (CNS), melanoma, ovarian, renal, prostate and breast cancer tissues.
The NCI assays were performed under standardized conditions and use the sulforhodamine B assay as the endpoint. The NCI set of 60 lines included nine colon cancer cell lines (COLO 205, DLD-1, HCC-2998, HCT-116, HCT-15, HT29, KM12, KM20L2, and SW-620).
The NCI assays were performed under standardized conditions and use the sulforhodamine B assay as the endpoint. The NCI set of 60 lines included twelve non-small cell lung cancer cell lines (A549, EKVX, HOP-18, HOP-19, HOP-62, HOP-92, NCI-H226, NCI-H23, NCI-H322M, NCI-H460, NCI-H522, and LXFL 529), and three small cell lung cancer cell lines (DMS 114, DMS 273, AND SHP-77).

[12] = tested on: human PBMC; experiment: MTT cytotoxicity on PBMC; assay type: cell-based; conditions: 0.5, 2, 4, and 8 μM for 24 h
Protocol: Proliferating PBMC were generated by 72 h incubation with phytohemagglutinin (PHA) at 2 μg/mL.

[13] = Study 6B: two week intravenous repetitive dose toxicity study in rats; conditions: 45 mg/kg, one animal, Day 15
[14] = tested on: human Panc-1 pancreatic cancer cells; assay type: in vivo, mice
Protocol: (§1) The animals were randomized into three groups. […] Mean tumor volume was then analyzed.

[15] = in vivo; conditions: Sprague-Dawley, rat, 10 mg/kg, AUC* (estimated from toxicology experiments)
[16] = tested on: HT-29 human colon cancer cells; experiment: Human colon cancer xenograft model; assay type: in vivo, mice
Protocol: as §1

[17] = tested on: A549 lung cancer cells; experiment: cells; conditions: Homo sapiens, A549, read-out: LC50, A549 Clone B surviving >LC99
[18] = tested on: DU-145; experiment: cells; conditions: Homo sapiens, DU-145, read-out: LC50 (Replicate Results), DU-145, 4 hour exposure, colonies after 14-21 days
Protocol: as §2

[19] = tested on: PaCa-2 pancreatic cancer cells; experiment: cells; conditions: Homo sapiens
[20] = Study 1B: dose-range-finding single dose intravenous toxicity study in rats
Text: In Study No. 1B, five groups of six adult Sprague-Dawley rats (three male and three female) were randomized to treatment groups and treated via intravenous infusion as shown in
Other observations included clinical signs, body weights and food consumption. On Day 8, animals were anesthetized with CO2 and blood for testing was collected by cardiocentesis, then animals were euthanized by CO2 asphyxiation and subjected to gross necropsy with histopathological evaluation performed on major organs (lungs, heart, liver, brain, spleen and kidneys).

## CC1(C)CCC2=C(O1)c1ccccc1C(=O)C2=O [β-lapachone, 3,4-dihydro-2,2-dimethyl-2H-naphtho [1,2-b]pyran-5,6-dione]
[1]; 45 mg/kg dose, predose 0.38 and 0.26
  total bilirubin levels: 0.66 mg/dL and 0.87 mg/dL
[1]; 11-day study, declined from 14.9 and 13.5
  hemoglobin at end of study: 9.1 g/dL and 9.7 g/dL
[2]
  CC50: 1180 nM
[3]
  CC50: 1290 nM
[4]
  CC50: 2340 nM
[5]
  reduction of mean tumor volume: approximately 50%
[6]; intravenous, elimination half-life, one-hour infusion, doses in the range 5-15 mg/kg
  half-life: 4.5 to 7 h
[6]; iv, 5 mg/kg, 1-Hour Infusion
  AUC: 1280 ± 118 ng·h/mL
  Cmax: 363 ± 21 ng/mL
[6]; iv, 5 mg/kg, 10-Min. Infusion
  AUC: 1200 ± 313 ng·h/mL
  Cmax: 834 ± 116 ng/mL
[6]; iv, 5 mg/kg, T1/2, 1-Hour Infusion
  half-life: 4.3 ± 0.6 h
[6]; iv, 5 mg/kg, T1/2, 10-Min. Infusion
  half-life: 3.6 ± 0.9 h
[6]; iv, 5 mg/kg, Vdss, 1-Hour Infusion
  Vd: 19.6 ± 0.8 L/kg
[6]; iv, 5 mg/kg, Vdss, 10-Min. Infusion
  Vd: 20 ± 6.3 L/kg
[6]; iv, 10 mg/kg, 1-Hour Infusion
  AUC: 2640 ± 1020 ng·h/mL
  Cmax: 707 ± 134 ng/mL
[6]; iv, 10 mg/kg, T1/2, 1-Hour Infusion
  half-life: 4.9 ± 1.6 h
[6]; iv, 10 mg/kg, Vdss, 1-Hour Infusion
  Vd: 21 ± 5.3 L/kg
[6]; iv, 15 mg/kg, 1-Hour Infusion
  AUC: 4900 ± 54 ng·h/mL
  Cmax: 896 ± 130 ng/mL
[6]; iv, 15 mg/kg, T1/2, 1-Hour Infusion
  half-life: 7 ± 1.6 h
[6]; iv, 15 mg/kg, Vdss, 1-Hour Infusion
  Vd: 26.4 ± 5.7 L/kg
[6]; iv, volume of distribution, intravenous infusion
  Vd: 20 to 26 L/kg
[7]
  CC50: 1210 nM
[8]
  plasma levels (preliminary toxicokinetic results): significantly above the values predicted
[8]; iv, 5 mg/kg
  tolerability: well-tolerated
[9]
  fraction unbound at 10 μM: ≤ 0.35
[10]; 100 mg/kg in Lipiodol IP q3d, 30-day treatment
  tumor growth: greater suppression of tumor growth
[10]; 25 and 50 mg/kg in Lipiodol IP q3d
  tumor growth: inhibited tumor growth in a dose-dependent manner
[11]
  CC50: 8510 nM
[12]
  cytotoxicity to fresh or proliferating PBMC growth: No cytotoxicity
[13]; ULN 0.27
  total bilirubin: 0.46 mg/dL
[13]; ULN 19
  blood urea nitrogen: 40 mg/dL
[13]; ULN 513
  creatinine phosphokinase: 553 IU/L
[14]; 40 and 60 mg/kg IP every three days, 5 treatments
  mean tumor volume: reduced the mean tumor volume
[14]; mouse, in vivo
  toxicity: No sign of significant toxicity
[15]
  AUC: 2640 ng·h/mL
[16]; 60 mg/kg IP every three days, 10 treatments
  reduction of mean tumor volume: approximately 75%
[16]; mouse, in vivo
  toxicity: No sign of significant toxicity
[17]
  CC50: 1500 nM
[18]
  CC50: 1100 nM
[19]; PaCa-2, read-out: LC50, PaCa-2 Clone A surviving >LC99
  CC50: 2590 nM
[19]; PaCa-2, read-out: LC50, PaCa-2 Clone B surviving >LC99
  CC50: 2720 nM
[19]; PaCa-2, read-out: LC50, PaCa-2 WT
  CC50: 2690 nM
[20]; 60 mg/kg, 1-2 hours after dosing, resolved by Day 2
  clinical signs: transient clinical signs
[20]; 75 mg/kg group
  histopathological findings: Minimal to mild hepatocellular vacuolation and renal tubular epithelial pallor and attenuation
[20]; 30 or 45 mg/kg dose groups
  mortality and clinical signs: No mortality or clinical signs of toxicity
[20]; all groups
  hematology and serum chemistry values: generally unremarkable
[20]; single one-hour intravenous dose at 3 mg/ml, male and female rats
  NOEL: 45 mg/kg
